Patent US7196112B2, “Cell adhesion inhibitors” (Biogen Idec MA Inc., priority 2004, dated 2007)

Tests used:
α4β7 = target: T1, α4β7 (Homo sapiens, UniProt P13612+P26010); assay: Direct binding assay for α4β7 (VCAM-Ig, JY cells)
T1 construct: host or cells: JY human B-cell line
T1 sequence (P13612 34-1032): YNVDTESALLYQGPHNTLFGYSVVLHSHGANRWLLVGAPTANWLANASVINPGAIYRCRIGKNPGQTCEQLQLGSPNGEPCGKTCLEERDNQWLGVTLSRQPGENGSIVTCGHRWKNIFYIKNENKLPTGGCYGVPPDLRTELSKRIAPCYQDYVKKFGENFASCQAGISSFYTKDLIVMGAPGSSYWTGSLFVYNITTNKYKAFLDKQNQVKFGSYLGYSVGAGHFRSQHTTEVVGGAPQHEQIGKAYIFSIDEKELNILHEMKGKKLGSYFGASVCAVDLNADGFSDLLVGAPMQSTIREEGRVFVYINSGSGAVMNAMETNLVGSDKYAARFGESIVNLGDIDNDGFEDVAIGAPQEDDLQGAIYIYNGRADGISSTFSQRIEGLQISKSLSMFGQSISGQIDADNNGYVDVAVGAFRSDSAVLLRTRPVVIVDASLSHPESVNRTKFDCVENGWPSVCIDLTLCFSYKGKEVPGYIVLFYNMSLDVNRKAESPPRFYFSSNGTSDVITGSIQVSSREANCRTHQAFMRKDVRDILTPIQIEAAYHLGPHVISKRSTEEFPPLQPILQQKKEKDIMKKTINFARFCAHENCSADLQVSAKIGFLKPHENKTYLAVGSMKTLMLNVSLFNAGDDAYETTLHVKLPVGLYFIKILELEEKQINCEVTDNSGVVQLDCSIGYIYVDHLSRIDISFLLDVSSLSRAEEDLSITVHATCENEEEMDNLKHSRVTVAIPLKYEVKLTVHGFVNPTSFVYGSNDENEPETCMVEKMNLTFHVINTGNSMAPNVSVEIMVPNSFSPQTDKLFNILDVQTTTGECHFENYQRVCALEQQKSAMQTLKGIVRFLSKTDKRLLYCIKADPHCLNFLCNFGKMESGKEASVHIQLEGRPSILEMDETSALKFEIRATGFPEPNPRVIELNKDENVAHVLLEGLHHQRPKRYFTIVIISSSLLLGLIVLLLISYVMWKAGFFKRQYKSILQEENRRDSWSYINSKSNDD
T1 sequence (P26010 20-798): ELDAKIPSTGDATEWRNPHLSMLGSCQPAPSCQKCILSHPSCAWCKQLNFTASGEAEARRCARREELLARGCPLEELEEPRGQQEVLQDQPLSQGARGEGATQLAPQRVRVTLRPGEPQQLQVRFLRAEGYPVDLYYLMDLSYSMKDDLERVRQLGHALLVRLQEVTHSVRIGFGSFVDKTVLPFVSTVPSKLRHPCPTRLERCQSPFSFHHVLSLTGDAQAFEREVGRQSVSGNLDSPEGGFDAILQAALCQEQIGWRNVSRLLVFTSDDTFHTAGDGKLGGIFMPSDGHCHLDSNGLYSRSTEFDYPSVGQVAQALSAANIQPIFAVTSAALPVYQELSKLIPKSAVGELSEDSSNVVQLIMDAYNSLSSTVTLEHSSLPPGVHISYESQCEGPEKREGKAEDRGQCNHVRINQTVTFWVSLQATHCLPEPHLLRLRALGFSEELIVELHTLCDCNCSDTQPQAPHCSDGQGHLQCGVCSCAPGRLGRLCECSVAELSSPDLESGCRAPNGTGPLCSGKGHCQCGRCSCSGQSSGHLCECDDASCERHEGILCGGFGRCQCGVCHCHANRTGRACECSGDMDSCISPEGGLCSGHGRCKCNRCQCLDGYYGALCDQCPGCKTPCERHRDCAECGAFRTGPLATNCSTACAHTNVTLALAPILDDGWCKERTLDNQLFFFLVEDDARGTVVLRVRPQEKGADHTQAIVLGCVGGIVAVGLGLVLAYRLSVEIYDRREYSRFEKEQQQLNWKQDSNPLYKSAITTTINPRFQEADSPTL
Experimental: The results presented in Table 3 summarize the integrin selectivity for PEGylated inhibitors. The selectivity of the PEGylated inhibitors for the four integrins indicated were tested in adhesion formats for α1β1 and α2β1, and by direct binding for α4β7. Serial dilutions of each compound were tested and IC50 values calculated from the concentration dependence of the inhibition curves. KD values derived from kinetic data are shown for binding to α4β1.

α4β1 = α4β1 (Homo sapiens, UniProt P05556+P13612); assay: Kinetic binding to α4β1 on Jurkat cells, competition with 35S-B as probe for free α4β1; design: endogenous in cells; host or cells: Jurkat human T-cell line; conditions: for koff: read-out: koff/10^−4; for kon: read-out: kon/10^6; for Kd: calculated from on- and off-rate constants
α4β1, sequence (P05556 21-798, one chain of several): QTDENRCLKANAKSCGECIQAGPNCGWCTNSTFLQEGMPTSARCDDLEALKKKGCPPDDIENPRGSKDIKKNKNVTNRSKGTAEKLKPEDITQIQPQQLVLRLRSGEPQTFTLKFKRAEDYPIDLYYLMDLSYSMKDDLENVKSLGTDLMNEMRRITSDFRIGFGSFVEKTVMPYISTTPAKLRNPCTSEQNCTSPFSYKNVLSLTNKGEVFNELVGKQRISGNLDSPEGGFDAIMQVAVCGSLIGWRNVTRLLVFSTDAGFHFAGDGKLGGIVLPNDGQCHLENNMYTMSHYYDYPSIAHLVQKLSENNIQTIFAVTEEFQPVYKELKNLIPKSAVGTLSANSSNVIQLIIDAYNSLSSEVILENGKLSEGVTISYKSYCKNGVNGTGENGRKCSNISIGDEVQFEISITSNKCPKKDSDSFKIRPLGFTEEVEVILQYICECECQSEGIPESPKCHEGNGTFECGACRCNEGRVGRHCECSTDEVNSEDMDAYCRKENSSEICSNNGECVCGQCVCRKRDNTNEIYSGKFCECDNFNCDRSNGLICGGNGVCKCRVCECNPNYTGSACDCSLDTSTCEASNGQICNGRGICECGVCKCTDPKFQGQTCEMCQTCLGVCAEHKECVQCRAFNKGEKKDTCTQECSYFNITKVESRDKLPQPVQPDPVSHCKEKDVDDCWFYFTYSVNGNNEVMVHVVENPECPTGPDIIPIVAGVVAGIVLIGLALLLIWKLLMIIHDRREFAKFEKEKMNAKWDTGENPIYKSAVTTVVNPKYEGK
Experimental: All cells were periodically monitored for high integrin surface expression by FACS analysis. The binding of the various inhibitors to α4β1 were assessed on Jurkat cells by competition using radioactive ^35S-B as a reporter for a 1 occupancy. Jurkat cells were pelleted by centrifugation, washed two times with TBS (50 mM Tris HCl, 150 mM NaCl, 0.1% bovine serum albumin, 2 mM glucose, 10 mM HEPES pH 7.4), suspended at approximately 2×10^6 cells/mL in TBS, and counted using a Neubauer hemocytometer. The cells were further diluted 2×10^6 cells/mL with TBS containing 1 mM CaCl2 and 1 mM MgCl2 and treated with serial dilutions of test compound for 1 hour, and then 5 nM ^35S-B, an amount sufficient to bind all unoccupied receptors, was added for 10 minutes before measuring the bound counts. The cells were then pelleted by centrifugation, resuspended in 100 μL of TBS plus Mn^2+, and transferred to a scintillation vial containing 2.9 mL of ScintiVerse II (Fisher Scientific). Cell-associated radioactivity was quantified by scintillation counting. All studies were performed in siliconized 1.5 mL eppendorf tubes with a standard 1 mL sample volume. Each condition was tested in at least two independent studies. Non-specific binding of ^35S-B to cells was assessed at each cell density and ^35S-B concentration in TBS but in the absence of added metal ion. Specific counts bound were calculated by subtracting non specific counts from total counts bound. Counts bound under these conditions measures integrin that is not occupied by the test compound and is therefore free to bind the ^35S-B. The competition format was also used for kinetic binding studies. Binding and dissociation constants were calculated from α4β1 that remained free to bind the ^35S-B after treatment with test compound.
The affinities of the PEGylated inhibitors for α4β1 were calculated from association and disassociation rate constants using a kinetic analysis. For these studies, Jurkat cells expressing α4β1 (75,000 copies/cell) were treated with the inhibitors and then ^35S-B was added as a probe to detect free α4β1. The levels of bound inhibitor were calculated from a measure of total ^35S-B bound in the absence of added inhibitor and counts bound following inhibitor treatment.

| IC50 (α4β7; direct binding) [nM] | % bound Ca2+Mg2+ 30 min (α4β1; Ca2+Mg2+, 30 min) [%] | On-rate (α4β1; Jurkat cells, 35S-B probe) [M⁻¹ s⁻¹] | % bound Mn2+ 60 min (α4β1; Mn2+, 60 min) [%] | SMILES | affinity higher for α4β1 than for α4β7 (α4β7; α4β1 versus α4β7) | koff (α4β1; Jurkat cells, 35S-B probe) [s⁻¹] | kon (α4β1; Jurkat cells, 35S-B probe) [M⁻¹ s⁻¹] | Kd (α4β1; Jurkat cells) [nM] |
| --- | --- | --- | --- | --- | --- | --- | --- | --- |
|  |  |  |  | Cc1ccccc1NC(=O)Nc1ccc(CC(=O)N(C)[C@@H](CC(C)C)C(=O)NCC[C@H](NC(=O)[C@@H]2CCCN2S(=O)(=O)c2cc(Cl)cc(Cl)c2)C(=O)O)cc1 [Compound R, 2S-{[1-(3,5-dichloro-benzenesulfonyl)-pyrrolidine-2S-carbonyl]-amino}-4-[4-methyl-2S-(methyl-{2-[4-(3-o-tolyl-ureido)-phenyl]-acetyl}-amino)-pentanoylamino]-butyric acid] | > 2,000 fold | 1.2e-05 | 1.5e+06 | 0.009 |
| > 1000 | >90 | 4e+06 | >95 | Cc1ccccc1NC(=O)Nc1ccc(CC(=O)N(C)[C@@H](CC(C)C)C(=O)NCC[C@H](NC(=O)C2CCCN2S(=O)(=O)c2ccccc2)C(=O)O)cc1 (stereo partly drawn) [Compound B, 2S-[(1-benzenesulfonyl-pyrrolidine-2S-carbonyl)-amino]-4-[4-methyl-2S-(methyl-{2-[4-(3-o-tolyl-ureido)-phenyl]-acetyl}-amino)-pentanoylamino]-butyric acid] |  | 1.9e-05 | 4e+06 | 0.005 |
